Measurements published in US9023789B2, “Amylin analogs and pharmaceutical compositions thereof” (Novo Nordisk A/S, priority 2012, dated 2015).
pIC50: −log10 of the molar value. Numbered stars: 1 amine (or outer) side, 2 acyl side, 3 side chain; on linkers, the order of the positions; unused ones are H or OH. Bridge positions count the residues as written; N and C are the ends. Side chains are listed from the residue outwards. Peptide text beside a SMILES is read from it. * marks the point of attachment. C20 diacid = O=C(O)CCCCCCCCCCCCCCCCCCC(=O)*; γGlu = O=C(O)[C@H](CCC(=O)[*:2])N[*:1]; AEEA = NCCOCCOCC(=O)O

Key:
[1] = ASSAY (III) ThT fibrillation assay for physical stability; type: physicochemical
How it was run: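 Physical stability scored by ThT fluorescence (444 nm excitation, 485 nm emission) tracked every 20 min during 37 °C incubation with 960 rpm shaking, ThT at 1 μM final. Values are replicate means with SD at chosen times; HPLC against pramlintide standard gives initial and post-assay soluble concentrations.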

[2] = molecular target: T1, rat amylin receptor (rat calcitonin receptor + rat RAMP 3) (Rattus norvegicus, UniProt P32214+Q9JJ73); assay: ASSAY (VI) binding to the rat amylin receptor; details: for pIC50: binding to rat amylin receptor, read-out: rAmylin-R bind IC50
T1 construct: expressed in transfected cells; host or cells: BHK tk'ts 13 (transient, FuGENE 6), membranes
T1 sequence (P32214 25-479 isoform P32214-2 limits assumed): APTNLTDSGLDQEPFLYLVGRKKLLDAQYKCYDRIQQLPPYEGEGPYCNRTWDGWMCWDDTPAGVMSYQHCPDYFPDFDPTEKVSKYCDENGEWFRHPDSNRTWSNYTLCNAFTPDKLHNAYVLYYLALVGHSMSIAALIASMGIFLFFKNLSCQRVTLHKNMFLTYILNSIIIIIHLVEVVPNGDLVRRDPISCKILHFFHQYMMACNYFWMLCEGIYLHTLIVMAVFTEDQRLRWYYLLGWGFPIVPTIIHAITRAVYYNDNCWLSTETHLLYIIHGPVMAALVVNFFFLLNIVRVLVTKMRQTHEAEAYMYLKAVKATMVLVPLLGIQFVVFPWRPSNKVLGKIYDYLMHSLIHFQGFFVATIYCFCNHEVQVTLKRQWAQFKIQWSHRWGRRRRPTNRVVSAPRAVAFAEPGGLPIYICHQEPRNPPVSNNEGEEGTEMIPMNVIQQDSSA
T1 sequence (Q9JJ73 23-147 partner): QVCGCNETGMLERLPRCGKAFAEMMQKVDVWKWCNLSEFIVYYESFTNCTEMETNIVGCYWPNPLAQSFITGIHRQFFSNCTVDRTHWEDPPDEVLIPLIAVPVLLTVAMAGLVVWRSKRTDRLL
How it was run: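 Membranes for this rat amylin receptor binding assay came from BHK tk′ts 13 cells. The cells were transiently transfected with rat calcitonin receptor using the FuGENE® 6 reagent from Roche, as the manufacturer recommends. The cells were collected approximately 48 hours after transfection, and membranes were then prepared.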

[3] = Table 7, rat binding selectivity, rCTR IC50 / rAmylin-R IC50
[4] = Table 7a (preferred compounds), rat binding selectivity, rCTR IC50 / rAmylin-R IC50
[5] = ratio of rCTR bind IC50 to rAmylin-R bind IC50

| Compound | ThT pH 4.0 lag time (h) [1] [h] | pIC50 ([2]; Table 7) | Ratio rCT/rAmylin binding [2, 3] | Ratio rCT/rAmylin binding [2, 4] | Ratio rCT/rAmylin binding [2, 5] |
| --- | --- | --- | --- | --- | --- |
| CC[C@H](C)[C@H](NC(=O)[C@H](C)NC(=O)CNC(=O)[C@H](Cc1ccccc1)NC(=O)[C@H](CC(N)=O)NC(=O)[C@@H]1CCCN1C(=O)[C@H](CO)NC(=O)[C@H](CO)NC(=O)[C@H](Cc1c[nH]cn1)NC(=O)[C@H](CCCNC(=N)N)NC(=O)[C@H](CC(C)C)NC(=O)[C@H](Cc1ccccc1)NC(=O)[C@H](CC(N)=O)NC(=O)[C@H](C)NC(=O)[C@H](CC(C)C)NC(=O)[C@H](CCCNC(=N)N)NC(=O)[C@H](CCC(N)=O)NC(=O)[C@@H](NC(=O)[C@H](C)NC(=O)[C@@H]1CSSC[C@H](NC(=O)[C@@H](N)CCCCNC(=O)COCCOCCNC(=O)CC[C@H](NC(=O)CCCCCCCCCCCCCCCCCCC(=O)O)C(=O)O)C(=O)N[C@@H](CC(N)=O)C(=O)N[C@@H]([C@@H](C)O)C(=O)N[C@@H](C)C(=O)N[C@@H]([C@@H](C)O)C(=O)N1)[C@@H](C)O)C(=O)N1CCC[C@H]1C(=O)N[C@@H](CO)C(=O)N[C@@H](CO)C(=O)N[C@H](C(=O)N1CCC[C@H]1C(=O)N[C@H](C(=O)NCC(=O)N[C@@H](CO)C(=O)N[C@@H](Cc1c[nH]cn1)C(=O)N[C@H](C(=O)N[C@@H](Cc1ccc(O)cc1)C(N)=O)[C@@H](C)O)C(C)C)[C@@H](C)O [Example 57] (H-K([AEEA-γGlu-C20 diacid])CNTATCATQRLANFLRHSSPNFGAIPSSTPVGSHTY-NH2; disulfide 2-7; N-terminus assumed) | 45 | 9.74 | 134.8 | 134.8 | 134.8 |
| CC[C@H](C)[C@H](NC(=O)[C@H](C)NC(=O)CNC(=O)[C@H](Cc1ccccc1)NC(=O)[C@H](CC(N)=O)NC(=O)[C@@H]1CCCN1C(=O)[C@H](CO)NC(=O)[C@H](CO)NC(=O)[C@H](Cc1c[nH]cn1)NC(=O)[C@H](CCCNC(=N)N)NC(=O)[C@H](CC(C)C)NC(=O)[C@H](Cc1ccccc1)NC(=O)[C@H](CC(N)=O)NC(=O)[C@H](C)NC(=O)[C@H](CC(C)C)NC(=O)[C@H](CCCNC(=N)N)NC(=O)[C@H](CCC(N)=O)NC(=O)[C@@H](NC(=O)[C@H](C)NC(=O)[C@@H]1CSSC[C@H](NC(=O)[C@@H](N)CCCCNC(=O)CC[C@H](NC(=O)CCCCCCCCCCCCCCCCCCC(=O)O)C(=O)O)C(=O)N[C@@H](CC(N)=O)C(=O)N[C@@H]([C@@H](C)O)C(=O)N[C@@H](C)C(=O)N[C@@H]([C@@H](C)O)C(=O)N1)[C@@H](C)O)C(=O)N1CCC[C@H]1C(=O)N[C@@H](CO)C(=O)N[C@@H](CO)C(=O)N[C@H](C(=O)N[C@@H](CC(N)=O)C(=O)N[C@H](C(=O)NCC(=O)N[C@@H](CO)C(=O)N[C@@H](Cc1c[nH]cn1)C(=O)N[C@H](C(=O)N[C@@H](Cc1ccc(O)cc1)C(N)=O)[C@@H](C)O)C(C)C)[C@@H](C)O [Example 60] | 45 | 9.67 | 122.4 | 122.4 | 122.4 |
